Data as given in the NIST ThermoML archive (doi:10.1021/je100068y).

Assay: mn = molality of the nth substance listed, in mol/kg
Conditions: 101.33 kPa, Liquid

CC(C)C[C@H](NC(=O)CN)C(=O)O [glycyl-L-leucine] + O
mass density [kg/m3]
Conditions | m1 = 0.01944 | m1 = 0.02958 | m1 = 0.0395 | m1 = 0.04928 | m1 = 0.057 | m1 = 0.07128 | m1 = 0.09125 | m1 = 0.1001
298.15 K | 997.991 | 998.487 | 998.954 | 999.428 | 999.792 | 1000.49 | 1001.44 | 1001.85
303.15 K | 996.492 | 996.981 | 997.455 | 997.926 | 998.294 | 998.981 | 999.94 | 1000.35
308.15 K | 994.971 | 995.453 | 995.927 | 996.398 | 996.773 | 997.443 | 998.415 | 998.822
313.15 K | 993.308 | 993.787 | 994.248 | 994.705 | 995.068 | 995.712 | 996.655 | 997.07

NCC(=O)NCC(=O)O [glycylglycine] + O
mass density [kg/m3]
Conditions | m1 = 0.0294 | m1 = 0.04517 | m1 = 0.06076 | m1 = 0.07901 | m1 = 0.1051 | m1 = 0.1496 | m1 = 0.2003 | m1 = 0.257 | m1 = 0.3022
298.15 K | 998.688 | 999.547 | 1000.42 | 1001.42 | 1002.86 | 1005.27 | 1007.99 | 1011.04 | 1013.4
303.15 K | 997.189 | 998.051 | 998.909 | 999.898 | 1001.33 | 1003.76 | 1006.46 | 1009.51 | 1011.87
308.15 K | 995.661 | 996.52 | 997.375 | 998.349 | 999.766 | 1002.15 | 1004.89 | 1007.83 | 1010.28
313.15 K | 994.003 | 994.856 | 995.681 | 996.677 | 998.065 | 1000.44 | 1003.12 | 1006.06 | 1008.41

CC(C)[C@H](NC(=O)CN)C(=O)O [glycyl-L-valine] + O
mass density [kg/m3]
Conditions | m1 = 0.02257 | m1 = 0.03982 | m1 = 0.06066 | m1 = 0.07858 | m1 = 0.1017 | m1 = 0.1513 | m1 = 0.1791 | m1 = 0.2026
298.15 K | 998.221 | 999.108 | 1000.17 | 1001.09 | 1002.26 | 1004.75 | 1006.13 | 1007.28
303.15 K | 996.723 | 997.606 | 998.679 | 999.59 | 1000.76 | 1003.24 | 1004.65 | 1005.79
308.15 K | 995.192 | 996.067 | 997.129 | 998.03 | 999.181 | 1001.63 | 1003.01 | 1004.11
313.15 K | 993.535 | 994.395 | 995.435 | 996.317 | 997.462 | 999.879 | 1001.22 | 1002.29

O [water] + NCC(=O)NCC(=O)O
m2 = 0
Conditions | mass density [kg/m3]
303.15 K | 995.55
313.15 K | 992.392
